From patent publication US20240181020A1, “TREATMENT OF HYPOPARATHYROIDISM” (Entera Bio Ltd., priority 2015, published 2024)
Blank lines part the entries; values can stand above or below the compound they belong to.

Columns and labels:
[1] = Release of SNAC from tablets with or without sodium bicarbonate in simulated gastric buffer; assay type: physicochemical; details: tablet with 100 mg sodium bicarbonate vs without; simulated gastric buffer pH 2.0, 37° C., 50 rotations per minute; FIG. 24
Method: The tablets were in a form of a homogeneous mixture. Each tablet formulation was subjected to a dissolution test in 100 ml of simulated gastric buffer (without pepsin), pH 2.0, at 37° C., according to USP 23 Apparatus 2 (paddle) with 50 rotations per minute. The amount of released SNAC in each sample was determined chromatographically, using an HPLC apparatus with Cosmosil™ 5 C18-MS-II (4.6 ID×250 mm) column. Mobile phase consisted of 50% acetonitrile and 50% phosphoric acid solution (0.1%). Flow rate was 1 ml/minute and injection volume was 25 μl. Amount of released SNAC was calculated as a percentage of the amount of SNAC in the formulation.

[2] = Phase I clinical study: plasma PTH(1-34) after oral teriparatide tablets vs subcutaneous injection; assay type: in vivo, human; details: healthy volunteers, FIG. 1
Method: A Phase I clinical study of exemplary oral formulations comprising teriparatide (parathyroid hormone (1-34)) was conducted at the Hadassah Clinical Research Center. 42 healthy volunteers were included throughout the study.
The formulation was composed of teriparatide (200, 400, 680, 1400 or 1800 μg), SNAC (sodium 8-N-(2-hydroxybenzoyl) aminocaprylate), soybean trypsin inhibitor and magnesium stearate.
Tablets were administered in the morning after an 8-hour overnight fast and immediately followed by 150 ml of water. At each visit a standard meal was provided 3 hours after drug administration.
To determine parathyroid hormone(1-34) concentrations, blood samples (4 ml each) were drawn via an indwelling catheter from the forearm vein at predetermined time points. The cannula was flushed with 1.5 ml normal saline after each sampling. In addition, to avoid sample dilution, 1 ml of blood was drawn and discarded before the next sample. The blood samples were taken at following times: baseline (predose), 15 minutes, 30 minutes, 45 minutes, 60 minutes, 75 minutes, 90 minutes, 105 minutes, 2 hours, 3 hours, 4 hours and 5 hours post-administration. Each blood sample was collected into a single tube containing EDTA (ethylenediaminetetraacetic acid) and placed on ice. […] PTH levels were measured using an IDS-iSYS automated assay for the measurement of intact PTH in human plasma or serum. […]

hypoparathyroidism = details: cited from earlier work
[3] = tested on: plasma levels of cAMP, a known marker of PTH activity; assay: Phase I clinical study: plasma cAMP as marker of PTH activity; assay type: in vivo, human; details: oral 680 μg and subcutaneous 20 μg teriparatide; FIG. 3
Method: In addition, plasma levels of cAMP, a known marker of PTH activity, were determined in order to confirm biological activity of administered PTH. cAMP plasma levels were measured following oral administration of 680 μg teriparatide or subcutaneous injection of 20 μg teriparatide, as described hereinabove.

[4] = Open label comparative pharmacokinetic study: oral teriparatide tablet with water or sodium bicarbonate solution; assay type: in vivo, human; details: 0.75 mg oral tablet with 150 ml of 3 mg/ml sodium bicarbonate solution vs 150 ml water; ten healthy volunteers; FIG. 25
Method: An open label comparative pharmacokinetic study was performed on ten healthy volunteers. On different visits, each volunteer received the same oral tablet containing 0.75 mg of teriparatide, a recombinant form of parathyroid hormone (1-34) (PTH(1-34)). In the first visit, the tablet was administered with 150 ml water, whereas in the second visit the tablet was administered with 150 ml of 3 mg/ml sodium bicarbonate aqueous solution.
The formulation was composed of teriparatide (0.75 mg), SNAC (sodium 8-N-(2-hydroxybenzoyl) aminocaprylate), soybean trypsin inhibitor (SBTI) and a small amount of magnesium stearate.
Tablets were administered in the morning after an 8-hour overnight fast. At each visit a standard meal was provided 3 hours after drug administration. […] There was a two week period between the two visits.
To determine PTH(1-34) concentrations, blood samples were drawn and PTH(1-34) levels were measured using an IDS-iSYS automated assay, using procedures described in Example 1 hereinabove. Relative absorption was determined based on the AUC (area under curve) parameter.

[5] = Phase IIa study: teriparatide serum levels after oral dosing before and after a meal; assay type: in vivo, human; details: second administration on day 1 vs empty stomach
Method: To determine parathyroid hormone(1-34) concentrations, blood samples (4 ml each) were drawn via an indwelling catheter from the forearm vein at predetermined time points. The cannula was flushed with 1.5 ml normal saline after each sampling. In addition, to avoid sample dilution, 1 ml of blood was drawn and discarded before the next sample. The blood samples were taken at following times: baseline (predose), 15 minutes, 30 minutes, 45 minutes, 60 minutes, 75 minutes, 90 minutes, 105 minutes, 2 hours, 3 hours, 4 hours and 5 hours post-administration. Each blood sample was collected into a single tube containing EDTA (ethylenediaminetetraacetic acid) and placed on ice. Within 15 minutes of blood collection, samples were centrifuged for 10 minutes at 4° C. […] PTH levels were measured using an IDS-iSYS automated assay for the measurement of intact PTH in human plasma or serum.
Teriparatide was administered 4 times per day, prior to meals, for 16 weeks. […] On the first day of treatment during follow up visits at the end of weeks 1, 2, 3, 4, 6, 8, 10, 12 and 16, serum calcium, phosphorus, albumin, and creatinine were evaluated, and dose adjustment of supplemental calcium medications was performed based on albumin adjusted calcium (ACa) levels. […] Quality of Life was (QoL) was monitored using a standard questionnaire.

[6] = tested on: patients with established primary hypoparathyroidism (PHP); assay: Phase IIa multi-center clinical study of oral teriparatide, 4 times per day for 16 weeks; assay type: in vivo, human
Method: A Phase IIa multi-center clinical study of an exemplary oral formulation comprising teriparatide was conducted on 19 patients with established primary hypoparathyroidism (PHP) (for more than one year). PHP was postsurgical in 13 patients, autoimmune in 5 patients and hereditary in 1 patient.
The average age of the patients was 44.5 years (range 20.3 to 71 years). At enrollment, the patients were treated with an average of 3.64 grams calcium supplement per day (range 1-10.8 grams per day) and 1.1 μg alphacalcidol supplement per day (range 0-2 μg per day). Patients with low hemoglobin, estimated glomerular filtration rate (eGFR) of less than 40 ml per minute per 1.73 m^2, liver enzymes at least 3 times the upper limit, drug or alcohol abuse, kidney/urinary tract stones, 25-hydroxycholecalciferol (25(OH)D) serum levels of less than 20 ng/ml or BMI outside the range of […] were excluded from the study.
The formulation was composed of teriparatide (750 μg per dose), SNAC, soybean trypsin inhibitor and magnesium stearate.
Teriparatide was administered 4 times per day, prior to meals, for 16 weeks. Following the first two doses, plasma samples were taken for pharmacokinetic analysis by determining teriparatide serum levels according to procedures described in Example 1. On the first day of treatment during follow up visits at the end of weeks 1, 2, 3, 4, 6, 8, 10, 12 and 16, serum calcium, phosphorus, albumin, and creatinine were evaluated, and dose adjustment of supplemental calcium medications was performed based on albumin adjusted calcium (ACa) levels. 24 hour urine samples were collected at the end of weeks 8 and 16. Quality of Life was (QoL) was monitored using a standard questionnaire.

[7] = patient, 16-week treatment, FIG. 8

dissolution of SNAC from tablets, effect of sodium bicarbonate [1]: considerably enhanced the dissolution
SMILES: O=C(O)CCCCCCCNC(=O)c1ccccc1O [SNAC, sodium 8-N-(2-hydroxybenzoyl)aminocaprylate]

Cmax of PTH(1-34) following oral administration, relation to dose ([2]; oral doses 200, 400, 680, 1400 or 1800 μg): proportional to the dose
oral dose of teriparatide providing a Cmax equivalent to that of subcutaneous administration of 20 μg teriparatide ([2]; oral tablets with SNAC, soybean trypsin inhibitor, magnesium stearate, 8-hour overnight fast): roughly 750 μg
increase in absorption of PTH(1-34) (AUC) [4]: about 35%
PTH(1-34) serum levels, after a meal relative to prior to a meal, sample case ([5]; patient, FIG. 10): about half
PTH(1-34) serum levels, after a meal relative to prior to a meal ([5]; FIGS. 6 and 7): about half
SMILES: CC[C@H](C)[C@H](NC(=O)[C@H](CCC(=O)O)NC(=O)[C@H](CO)NC(=O)[C@@H](NC(=O)[C@@H](N)CO)C(C)C)C(=O)N[C@@H](CCC(N)=O)C(=O)N[C@@H](CC(C)C)C(=O)N[C@@H](CCSC)C(=O)N[C@@H](Cc1cnc[nH]1)C(=O)N[C@@H](CC(N)=O)C(=O)N[C@@H](CC(C)C)C(=O)NCC(=O)N[C@@H](CCCCN)C(=O)N[C@@H](Cc1cnc[nH]1)C(=O)N[C@@H](CC(C)C)C(=O)N[C@@H](CC(N)=O)C(=O)N[C@@H](CO)C(=O)N[C@@H](CCSC)C(=O)N[C@@H](CCC(=O)O)C(=O)N[C@@H](CCCN=C(N)N)C(=O)N[C@H](C(=O)N[C@@H](CCC(=O)O)C(=O)N[C@@H](Cc1c[nH]c2ccccc12)C(=O)N[C@@H](CC(C)C)C(=O)N[C@@H](CCCN=C(N)N)C(=O)N[C@@H](CCCCN)C(=O)N[C@@H](CCCCN)C(=O)N[C@@H](CC(C)C)C(=O)N[C@@H](CCC(N)=O)C(=O)N[C@@H](CC(=O)O)C(=O)N[C@H](C(=O)N[C@@H](Cc1cnc[nH]1)C(=O)N[C@@H](CC(N)=O)C(=O)N[C@@H](Cc1ccccc1)C(=O)O)C(C)C)C(C)C [teriparatide]
reduction in the PTH dose needed to maintain normal serum calcium levels (hypoparathyroidism; pump vs twice-daily subcutaneous injection, from 37 μg per day to 13 μg per day): 65%
reduction in urine calcium (hypoparathyroidism; subcutaneous infusion by insulin pump vs twice-daily subcutaneous injection): more than 50%
plasma cAMP levels [3]: increased plasma cAMP levels to a similar degree
urinary calcium, margin below the upper limit of normal ([6]; 3 subjects with sustained elevations): more than 30%
average decrease in urinary calcium ([6]; 13 subjects with sustained decrease): 34%
urinary calcium ([6]; 13 subjects with sustained decrease, from 209 mg per 24 hours): 136 mg per 24 hours
serum phosphorus after each dose, range ([6]; 60 minutes after oral dose, throughout 16 weeks): 2.9 to 5.2 mg/dL
serum phosphorus, average level after each dose ([6]; 60 minutes after oral dose, throughout 16 weeks, p<0.02, FIG. 5): 4.3 mg/dL
pre-dose serum phosphorus levels ([6]; FIG. 5): reduced following 2 weeks of treatment
reduction of calcium intake ([6]; after 16 weeks, relative to baseline): 1278 ± 880 mg
average reduction of calcium intake ([6]; after 16 weeks, relative to baseline, FIG. 4): 37%
calcium intake ([6]; after 16 weeks, baseline 3692 mg): 2414 mg
subjects with urinary calcium above the normal range ([6]; at the end of 16 weeks, subjects who completed the study): one of the 17
albumin adjusted calcium, range ([6]; during treatment, baseline range 7.2-8.99): 6.97-9.14 md/dL
albumin adjusted calcium, mean level ([6]; maintained during treatment while calcium intake was decreased, baseline 7.92): 8.15 mg/dL
related adverse events ([6]; oral 750 μg per dose, 4 times per day, 16 weeks, 17 subjects completed): no related adverse events
safety and tolerability ([6]; oral 750 μg per dose, 4 times per day, 16 weeks, 17 subjects completed, over 8000 doses): safe and well tolerated
reduction of calcium intake, sample case [6, 7]: over 50%
reduction of urinary calcium levels, sample case [6, 7]: over 50%
total serum levels of 25-hydroxycholecalciferol (25(OH)D), sample case ([6]; patient, end of week 4, baseline 32.2 ng/ml, constant alphacalcidol): 36.7 ng/mL
ACa levels, sample case ([6]; patient, FIG. 9): gradually increased
serum phosphate levels, sample case ([6]; patient, FIG. 9): gradually decreased
Quality of Life health score, sample case ([6]; patient, increased from 70): 80
